Assay results published in patent US8501946B2 (Glaxo Group Limited, priority 2009, dated 2013).

The compounds below were run against T1, human recombinant P2X7 receptors (Homo sapiens, UniProt Q99572) (assay: Ethidium Accumulation Assay 1 (HEK293 cells, ATP-induced ethidium uptake)). Conditions: HEK293 cells expressing human P2X7; 1 mM ATP; sometimes mean of more than one measurement; read-out: Assay 1 (antagonist pIC50 for blocking ATP responses) (converted).
T1 construct: expressed in transfected cells
T1 sequence (Q99572 1-595): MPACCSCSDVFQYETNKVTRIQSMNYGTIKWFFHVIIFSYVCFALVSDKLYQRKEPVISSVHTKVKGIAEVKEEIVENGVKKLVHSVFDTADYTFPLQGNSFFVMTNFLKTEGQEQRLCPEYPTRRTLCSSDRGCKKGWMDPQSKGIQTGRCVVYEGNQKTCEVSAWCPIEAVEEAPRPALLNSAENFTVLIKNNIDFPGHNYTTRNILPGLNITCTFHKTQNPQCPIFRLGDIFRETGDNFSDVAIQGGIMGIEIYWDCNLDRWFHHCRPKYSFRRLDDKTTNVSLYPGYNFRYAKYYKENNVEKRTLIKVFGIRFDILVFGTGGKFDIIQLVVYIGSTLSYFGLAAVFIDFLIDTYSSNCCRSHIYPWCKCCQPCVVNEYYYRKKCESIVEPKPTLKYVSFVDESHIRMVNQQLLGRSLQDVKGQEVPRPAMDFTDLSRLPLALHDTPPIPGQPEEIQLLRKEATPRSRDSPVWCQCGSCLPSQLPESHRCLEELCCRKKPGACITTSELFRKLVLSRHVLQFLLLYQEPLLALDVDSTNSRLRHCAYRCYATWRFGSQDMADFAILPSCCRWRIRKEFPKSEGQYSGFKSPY
Format: cell-based
Experimental: Eithidium Accumulation Assay 1
Studies were performed using NaCl assay buffer of the following composition: 140 mM NaCl, 10 mM HEPES [4-(2-hydroxyethyl)-1-piperazine-1-ethanesulfonic acid], 5 mM N-methyl-D-glucamine, 5.6 mM KCl, 10 mM D-glucose, 0.5 mM CaCl2 (pH 7.4).
Human Embryonic Kidney (HEK) 293 cells, stably expressing human recombinant P2X7 receptors, were grown in poly-D-lysine pretreated 96 well plates for 18-24 hours.
The cells were washed twice with 350 μl of the assay buffer, before addition of 50 μl of the assay buffer containing the putative P2X7 receptor antagonist compound. (A small amount of dimethyl sulfoxide, for initially dissolving the compound, is optionally used and present in this 50 μl test compound sample.) The cells were then incubated at room temperature (19-21° C.) for 30 min before addition of ATP and ethidium (100 μM final assay concentration). The ATP concentration was chosen to be close to the EC80 for the receptor type and was 1 mM for studies on the human P2X7 receptor. Incubations were continued for 8 or 16 min and were terminated by addition of 25 μl of 1.3M sucrose containing 4 mM of the P2X7 receptor antagonist Reactive Black 5 (Aldrich). […] Antagonist pIC50 values for blocking ATP responses were determined using iterative curve fitting techniques.

Row | IC50 [nM] | Structure (SMILES)
1 | < 10 | Cc1ccnc(-c2nnc3n2CCN(C(=O)c2cccc(C(F)(F)F)c2Cl)C3)c1 [Example 56, 7-{[2-chloro-3-(trifluoromethyl)phenyl]carbonyl}-3-(4-methyl-2-pyridinyl)-5,6,7,8-tetrahydro[1,2,4]triazolo [4,3-a]pyrazine]
2 | < 100 | O=C(c1ccc(F)cc1Cl)N1CCn2c(nnc2-c2cccnc2)C1 [Example 39, 7-[(2-chloro-4-fluorophenyl)carbonyl]-3-(3-pyridinyl)-5,6,7,8-tetrahydro[1,2,4]triazolo [4,3-a]pyrazine]
3 | < 100 | Cc1c(C(=O)N2CCn3c(nnc3-c3ncns3)C2)ccc(F)c1F [Example 202, 7-[(3,4-Difluoro-2-methylphenyl)carbonyl]-3-(1,2,4-thiadiazol-5-yl)-5,6,7,8-tetrahydro[1,2,4]triazolo[4,3-a]pyrazine]
4 | < 100 | O=C(c1ccc(F)cc1Cl)N1CCn2c(nnc2-c2cccc3cc[nH]c23)C1 [Example 132, 7-[(2-chloro-4-fluorophenyl)carbonyl]-3-(1H-indol-7-yl)-5,6,7,8-tetrahydro[1,2,4]triazolo[4,3-a]pyrazine]
5 | < 100 | O=C(c1ccc(Cl)cc1F)N1CCn2c(nnc2-c2ccccn2)C1 [Example 96, 7-[(4-chloro-2-fluorophenyl)carbonyl]-3-(2-pyridinyl)-5,6,7,8-tetrahydro[1,2,4]triazolo [4,3-a]pyrazine]
6 | < 100 | CCCc1nnc2n1CCN(C(=O)c1cccc(C(F)(F)F)c1Cl)C2 [Example 134, 7-{[2-chloro-3-(trifluoromethyl)phenyl]carbonyl}-3-propyl-5,6,7,8-tetrahydro[1,2,4]triazolo[4,3-a]pyrazine]
7 | < 10 | O=C(c1cccc(C(F)(F)F)c1Cl)N1CCn2c(nnc2-c2ncccn2)C1 [Example 50, 7-{[2-chloro-3-(trifluoromethyl)phenyl]carbonyl}-3-(2-pyrimidinyl)-5,6,7,8-tetrahydro[1,2,4]triazolo [4,3-a]pyrazine]
8 | < 10 | O=C(c1cccc(C(F)(F)F)c1Cl)N1CCn2c(nnc2-c2ccc[nH]2)C1 [Example 38, 7-{[2-chloro-3-(trifluoromethyl)phenyl]carbonyl}-3-(1H-pyrrol-2-yl)-5,6,7,8-tetrahydro[1,2,4]triazolo [4,3-a]pyrazine]
9 | < 100 | O=C(c1ccc(F)cc1Cl)N1CCn2c(nnc2-c2ccc(F)cn2)C1 [Example 40, 7-[(2-chloro-4-fluorophenyl)carbonyl]-3-(5-fluoro-2-pyridinyl)-5,6,7,8-tetrahydro[1,2,4]triazolo [4,3-a]pyrazine]
10 | < 10 | O=C(c1cccc(Cl)c1Cl)N1CCn2c(nnc2-c2ccc[nH]2)C1 [Example 64, 7-[(2,3-dichlorophenyl)carbonyl]-3-(1H-pyrrol-2-yl)-5,6,7,8-tetrahydro[1,2,4]triazolo [4,3-a]pyrazine]
11 | < 501 | Cn1ccnc1-c1nnc2n1CCN(C(=O)c1ccc(F)cc1Cl)C2 [Example 140, 7-[(2-chloro-4-fluorophenyl)carbonyl]-3-(1-methyl-1H-imidazol-2-yl)-5,6,7,8-tetrahydro[1,2,4]triazolo[4,3-a]pyrazine]
12 | < 100 | Cc1cc(F)ccc1C(=O)N1CCn2c(nnc2-c2cnccn2)C1 [Example 107, 7-[(4-fluoro-2-methylphenyl)carbonyl]-3-(2-pyrazinyl)-5,6,7,8-tetrahydro[1,2,4]triazolo [4,3-a]pyrazine]
13 | < 100 | O=C(c1ccc(F)cc1Cl)N1CCn2c(nnc2-c2ccc(F)c(F)c2)C1 [Example 124, 7-[(2-chloro-4-fluorophenyl)carbonyl]-3-(3,4-difluorophenyl)-5,6,7,8-tetrahydro[1,2,4]triazolo[4,3-a]pyrazine]
14 | < 100 | O=C(c1cccc(C(F)(F)F)c1Cl)N1CCn2c(nnc2C(F)(F)F)C1 [Example 2, 7-{[2-chloro-3-(trifluoromethyl)phenyl]carbonyl}-3-(trifluoromethyl)-5,6,7,8-tetrahydro[1,2,4]triazolo [4,3-a]pyrazine]
15 | < 501 | Cc1ncccc1-c1nnc2n1CCN(C(=O)c1ccc(F)cc1Cl)C2 [Example 74, 7-[(2-chloro-4-fluorophenyl)carbonyl]-3-(2-methyl-3-pyridinyl)-5,6,7,8-tetrahydro[1,2,4]triazolo [4,3-a]pyrazine]
16 | < 100 | O=C(c1ccc(F)cc1F)N1CCn2c(nnc2-c2ccccn2)C1 [Example 78, 7-[(2,4-difluorophenyl)carbonyl]-3-(2-pyridinyl)-5,6,7,8-tetrahydro[1,2,4]triazolo [4,3-a]pyrazine]
17 | < 10 | O=C(c1cccc(Cl)c1Cl)N1CCn2c(nnc2-c2ccccc2)C1 [Example 70, 7-[(2,3-dichlorophenyl)carbonyl]-3-phenyl-5,6,7,8-tetrahydro[1,2,4]triazolo [4,3-a]pyrazine]
18 | < 100 | O=C(c1ccc(F)cc1Cl)N1CCn2c(nnc2-c2cccc(F)c2)C1 [Example 123, 7-[(2-chloro-4-fluorophenyl)carbonyl]-3-(3-fluorophenyl)-5,6,7,8-tetrahydro[1,2,4]triazolo[4,3-a]pyrazine]

More lines, now with the values behind:

Row | Structure (SMILES) | IC50 [nM]
19 | Cc1cc(-c2nnc3n2CCN(C(=O)c2cccc(Cl)c2Cl)C3)no1 [Example 49, 7-[(2,3-dichlorophenyl)carbonyl]-3-(5-methyl-3-isoxazolyl)-5,6,7,8-tetrahydro[1,2,4]triazolo [4,3-a]pyrazine] | < 100
20 | CN(C)c1nnc2n1CCN(C(=O)c1cccc(C(F)(F)F)c1Cl)C2 [Example 20, 7-{[2-chloro-3-(trifluoromethyl)phenyl]carbonyl}-N,N-dimethyl-5,6,7,8-tetrahydro[1,2,4]triazolo [4,3-a]pyrazine-3-amine] | < 100
21 | O=C(c1cccc(C(F)(F)F)c1F)N1CCn2c(nnc2-c2ccccn2)C1 [Example 91, 7-{[2-fluoro-3-(trifluoromethyl)phenyl]carbonyl}-3-(2-pyridinyl)-5,6,7,8-tetrahydro[1,2,4]triazolo [4,3-a]pyrazine] | < 10
22 | O=C(c1ccc(F)cc1Cl)N1CCn2c(nnc2-c2ccccc2)C1 [Example 30, 7-[(2-Chloro-4-fluorophenyl)carbonyl]-3-phenyl-5,6,7,8-tetrahydro[1,2,4]triazolo[4,3-a]pyrazine] | < 100
23 | O=C(c1ccc(F)c(Cl)c1Cl)N1CCn2c(nnc2-c2cnccn2)C1 [Example 113, 7-[(2,3-Dichloro-4-fluorophenyl)carbonyl]-3-(2-pyrazinyl)-5,6,7,8-tetrahydro[1,2,4]triazolo[4,3-a]pyrazine] | < 10
24 | O=C(c1ccc(Cl)cc1Cl)N1CCn2c(nnc2-c2ccccn2)C1 [Example 76, 7-[(2,4-dichlorophenyl)carbonyl]-3-(2-pyridinyl)-5,6,7,8-tetrahydro[1,2,4]triazolo [4,3-a]pyrazine] | < 10
25 | COCCc1nnc2n1CCN(C(=O)c1cccc(C(F)(F)F)c1Cl)C2 [Example 137, 7-{[2-chloro-3-(trifluoromethyl)phenyl]carbonyl}-3-[2-(methyloxy)ethyl]-5,6,7,8-tetrahydro[1,2,4]triazolo[4,3-a]pyrazine] | < 100
26 | O=C(c1ccc(Cl)cc1Cl)N1CCn2c(nnc2-c2ccncn2)C1 [Example 102, 7-[(2,4-dichlorophenyl)carbonyl]-3-(4-pyrimidinyl)-5,6,7,8-tetrahydro[1,2,4]triazolo [4,3-a]pyrazine] | < 100
27 | CCc1nnc2n1CCN(C(=O)c1cccc(Cl)c1Cl)C2 [Example 5, 7-[(2,3-dichlorophenyl)carbonyl]-3-ethyl-5,6,7,8-tetrahydro[1,2,4]triazolo [4,3-a]pyrazine] | < 100
28 | O=C(c1ccc(F)cc1Cl)N1CCn2c(nnc2-c2cccc(F)c2F)C1 [Example 131, 7-[(2-chloro-4-fluorophenyl)carbonyl]-3-(2,3-difluorophenyl)-5,6,7,8-tetrahydro[1,2,4]triazolo[4,3-a]pyrazine] | < 100
29 | O=C(c1cccc(C(F)(F)F)c1F)N1CCn2c(Br)nnc2C1 [Example 9, 3-bromo-7-{[2-fluoro-3-(trifluoromethyl)phenyl]carbonyl}-5,6,7,8-tetrahydro[1,2,4]triazolo [4,3-a]pyrazine] | < 100
30 | O=C(c1ccc(F)cc1Cl)N1CCn2c(Br)nnc2C1 [Example 109, 3-Bromo-7-[(2-chloro-4-fluorophenyl)carbonyl]-5,6,7,8-tetrahydro[1,2,4]triazolo[4,3-a]pyrazine] | < 501
